Source: paper PMC7979765, “trans-Translation inhibitors bind to a novel site on the ribosome and clear Neisseria gonorrhoeae in vivo” (Nature Communications, 2021)
Values after ≈ are worked out from the molar mass of the structure shown. Values joined by “and” are separate entries in the source; they are usually repeats but may differ in a detail not shown here. Equal entries are not always repeated. Where two headings read alike, the source gives them in different places.

Key:
[1] = tested on: Salmonella typhimurium strains TA98 and TA100; assay type: cell-based
Experimental: The Ames assay was performed at SRI Biosciences, following the standard protocols established there[55]–[57]. In brief, samples were evaluated for their ability to induce genetic damage using the plate incorporation method with Salmonella typhimurium strains TA98 and TA100 with and without a metabolic activation mixture containing 10% Aroclar-1254-induced rat-liver microsomes (S9). MBX-4132 was tested from a 5 mg/mL DMSO stock solution (the solubility limit), which provided plate concentrations up to 500 µg/plate, with serial dilutions accessing doses as low as 5 µg/plate. MBX-4132 precipitated at the two highest dose levels (500 and 100 µg/plate), but at 50 µg/plate, no precipitation was observed. […] Test articles were considered mutagenic when the mean number of revertant colonies increased in a dose-dependent manner. Some cytotoxicity was observed, but sufficient colonies were formed to allow analysis. […] Data for 2-nitrofluorene and sodium azide (positive controls) and DMSO (negative control) were included for reference.

[2] = tested on: N. gonorrhoeae strain H041; experiment: In vivo efficacy in the gonorrhea mouse model; settings: for mouse cfu: individual mice, 2.00E+01 = no CFU/mL recovered, limit of detection
[3] = Liver microsome stability, murine; assay type: in vitro ADME, mouse; settings: murine liver microsomes
Experimental: To examine potential for first-pass metabolism of analogs in the liver, the stability of analogs in the presence of liver microsome preparations (Eurofins Discovery for human, dog and rat; Xenotech for mouse) was measured using the method of Kuhnz, et al.[50]. for murine studies and Oback for the dog, human and rat studies. The amount of parent compound remaining after incubation with microsomes in the presence of NADPH over a 30 min time range was measured using a reverse-phase liquid chromatography/mass spectroscopy method that was customized for each compound. Half-lives were calculated using linear regression analysis of several time points.

[4] = Aqueous solubility (nephelometric); assay type: physicochemical
Neisseria gonorrhoeae = experiment: MIC, microbroth dilution, G77L medium; assay type: cell-based
[5] = tested on: N. gonorrhoeae ATCC 49226; experiment: Time-kill assay

Nc1ccc2cc3ccccc3cc2c1 [2-Aminoanthracene, reference compound]
Average Mean Revertants/plate ([1]; TA98, 2 µg/plate, + S9): 1206.7 Revertants/plate | Mean Revertants/plate ([1]; TA98, 2 µg/plate, + S9, replicates): 1086 Revertants/plate and 1134 Revertants/plate and 1400 Revertants/plate | Mean Revertants/plate ([1]; TA98, + S9, 2 µg/plate): 1206.7 | Average Mean Revertants/plate ([1]; TA100, 2 µg/plate, + S9): 1438.7 Revertants/plate | Mean Revertants/plate ([1]; TA100, 2 µg/plate, + S9, replicates): 1428 Revertants/plate and 1389 Revertants/plate and 1499 Revertants/plate | Mean Revertants/plate ([1]; TA100, + S9, 2 µg/plate): 1438.7

[N-]=[N+]=[N-].[Na+] [Sodium Azide, reference compound]
Average Mean Revertants/plate ([1]; TA100, 5 µg/plate, no S9): 2029.0 Revertants/plate | Mean Revertants/plate ([1]; TA100, 5 µg/plate, no S9, replicates): 1978 Revertants/plate and 2032 Revertants/plate and 2077 Revertants/plate | Mean Revertants/plate ([1]; TA100, without S9, 5 µg/plate): 2029.0

CNC(C)C1CCC(N)C(OC2C(N)CC(N)C(OC3OCC(C)(O)C(NC)C3O)C2O)O1 (stereo not shown) [gentamicin, reference compound]
mouse cfu ([2]; Day 5, GEN, listed as GEN): 2.00E+01 CFU/mL (19×) and 3.11E+03 CFU/mL | mouse cfu ([2]; Day 6, GEN, listed as GEN): 2.00E+01 CFU/mL (19×) and 6.14E+04 CFU/mL | mouse cfu ([2]; Day 7, GEN, listed as GEN): 2.00E+01 CFU/mL (19×) and 3.22E+05 CFU/mL | mouse cfu ([2]; Day 8, GEN, listed as GEN): 2.00E+01 CFU/mL (19×) and 5.02E+06 CFU/mL | mouse cfu ([2]; Day -1, GEN, listed as GEN): 1.75E+06 CFU/mL and 2.50E+03 CFU/mL and 5.59E+05 CFU/mL and 1.30E+04 CFU/mL and 2.52E+05 CFU/mL and 1.60E+05 CFU/mL and 6.90E+06 CFU/mL and 1.04E+06 CFU/mL and 2.76E+04 CFU/mL and 2.76E+06 CFU/mL and 1.05E+03 CFU/mL and 2.80E+06 CFU/mL and 2.25E+06 CFU/mL and 3.27E+05 CFU/mL and 1.99E+05 CFU/mL and 1.82E+05 CFU/mL and 1.55E+06 CFU/mL and 1.50E+06 CFU/mL and 9.59E+05 CFU/mL and 4.61E+03 CFU/mL | mice cleared per day: cleared flag ([2]; GEN, individual mice 21-40, 1 = cleared on the day, 0 = not cleared, listed as GEN): 1 and 0 | Day (mice cleared per day: day on which the mouse was cleared) ([2]; GEN, individual mice 21-40, Day 8 with flag 0 = not cleared, listed as GEN): 1 and 4 and 8 and 3 and 5 and 2 | treated mice with infection cleared ([2]; daily intraperitoneal injection 48 mg/kg for 5 days, N. gonorrhoeae H041): 95%

O=C(Nc1nnc(-c2ccc(F)cc2)o1)c1ccccc1 [MBX-C4227]
Average MLMS t½ ([3]; average of replicates): <5 min | MLMS t½ ([3]; individual replicates): <5 min | Average solubility [4]: 50 µM | Solubility ([4]; single replicates): 50 µM (≈ 14.2 µg/mL)

O=[N+]([O-])c1ccc2c(c1)Cc1ccccc1-2 [2-Nitrofluorene, reference compound]
Average Mean Revertants/plate ([1]; TA98, 5 µg/plate, no S9): 1331.3 Revertants/plate | Mean Revertants/plate ([1]; TA98, 5 µg/plate, no S9, replicates): 1220 Revertants/plate and 1245 Revertants/plate and 1529 Revertants/plate | Mean Revertants/plate ([1]; TA98, without S9, 5 µg/plate): 1331.3

O=C(Nc1nnc(-c2ccc(F)cc2)o1)N1CCc2ccccc2C1 [MBX4132]
MIC (Neisseria gonorrhoeae; strain MMX 6744, single data point, Micromyx): 0.27 µg/mL (≈ 0.798 µM) | MIC (Neisseria gonorrhoeae; strain MMX 6746, single data point, Micromyx): 0.14 µg/mL (≈ 0.414 µM) | MIC (Neisseria gonorrhoeae; strain MMX 6752, single data point, Micromyx): 0.27 µg/mL (≈ 0.798 µM) | MIC (Neisseria gonorrhoeae; strain MMX 6753, single data point, Micromyx): 0.14 µg/mL (≈ 0.414 µM) | MIC (Neisseria gonorrhoeae; strain MMX 6757, single data point, Micromyx): 0.07 µg/mL (≈ 0.207 µM) | MIC (Neisseria gonorrhoeae; strain MMX 6758, single data point, Micromyx): 0.27 µg/mL (≈ 0.798 µM) | MIC (Neisseria gonorrhoeae; strain MMX 6762, single data point, Micromyx): 0.27 µg/mL (≈ 0.798 µM) | MIC (Neisseria gonorrhoeae; strain MMX 6767, single data point, Micromyx): 0.14 µg/mL (≈ 0.414 µM) | MIC (Neisseria gonorrhoeae; strain MMX 6771, single data point, Micromyx): 0.14 µg/mL (≈ 0.414 µM) | MIC (Neisseria gonorrhoeae; strain MMX 6793, single data point, Micromyx): 0.14 µg/mL (≈ 0.414 µM) | MIC (Neisseria gonorrhoeae; strain MMX 6797, single data point, Micromyx): 0.14 µg/mL (≈ 0.414 µM) | MIC (Neisseria gonorrhoeae; strain MMX 6803, single data point, Micromyx): 0.27 µg/mL (≈ 0.798 µM) | MIC (Neisseria gonorrhoeae; strain MMX 6812, single data point, Micromyx): 0.27 µg/mL (≈ 0.798 µM) | MIC (Neisseria gonorrhoeae; strain MMX 6818, single data point, Micromyx): 0.27 µg/mL (≈ 0.798 µM) | MIC (Neisseria gonorrhoeae; strain MMX 6819, single data point, Micromyx): 0.14 µg/mL (≈ 0.414 µM) | MIC (Neisseria gonorrhoeae; strain MMX 6879, single data point, Micromyx): 0.14 µg/mL (≈ 0.414 µM) | MIC (Neisseria gonorrhoeae; strain MMX 6921, single data point, Micromyx): 0.53 µg/mL (≈ 1.57 µM) | MIC (Neisseria gonorrhoeae; strain MMX 6922, single data point, Micromyx): 0.53 µg/mL (≈ 1.57 µM) | MIC (Neisseria gonorrhoeae; strain MMX 6983, single data point, Micromyx): 0.53 µg/mL (≈ 1.57 µM) | MIC (Neisseria gonorrhoeae; strain MMX 6989, single data point, Micromyx): 0.14 µg/mL (≈ 0.414 µM) | MIC (Neisseria gonorrhoeae; strain MMX 6990, single data point, Micromyx): 0.14 µg/mL (≈ 0.414 µM) | MIC (Neisseria gonorrhoeae; strain MMX 6992, single data point, Micromyx): 0.14 µg/mL (≈ 0.414 µM) | MIC (Neisseria gonorrhoeae; strain MMX 6996, single data point, Micromyx): 0.27 µg/mL (≈ 0.798 µM) | MIC (Neisseria gonorrhoeae; strain MMX 6998, single data point, Micromyx): 0.53 µg/mL (≈ 1.57 µM) | MIC (Neisseria gonorrhoeae; strain MMX 7002, single data point, Micromyx): 0.27 µg/mL (≈ 0.798 µM) | MIC (Neisseria gonorrhoeae; strain MMX 7005, single data point, Micromyx): 0.03 µg/mL (≈ 0.0887 µM) | MIC (Neisseria gonorrhoeae; strain MMX ATCC 49226, single data point, Micromyx): 0.27 µg/mL (≈ 0.798 µM)

CO/N=C(\C(=O)N[C@@H]1C(=O)N2C(C(=O)O)=C(CSc3nc(=O)c(=O)[nH]n3C)CS[C@H]12)c1csc(N)n1 [CRO, reference compound]
AVE CFU/ml ([5]; 1X MIC, 0 h): 9800000 CFU/ml | AVE CFU/ml ([5]; 1X MIC, 1 h): 8.20E+06 CFU/ml and 8200000 CFU/ml | CFU/mL, replicates 1-3 ([5]; 1X MIC, 1 h): 8200000 CFU/mL and 8000000 CFU/mL and 8400000 CFU/mL | AVE CFU/ml ([5]; 1X MIC, 2 h): 3.47E+06 CFU/ml and 3466667 CFU/ml | CFU/mL, replicates 1-3 ([5]; 1X MIC, 2 h): 3800000 CFU/mL and 3200000 CFU/mL and 3400000 CFU/mL | AVE CFU/ml ([5]; 1X MIC, 4 h): 60666.7 CFU/ml and 6.07E+04 CFU/ml | CFU/mL, replicates 1-3 ([5]; 1X MIC, 4 h): 60000 CFU/mL and 58000 CFU/mL and 64000 CFU/mL | AVE CFU/ml ([5]; 1X MIC, 6 h): 27333.3 CFU/ml and 2.73E+04 CFU/ml | CFU/mL, replicates 1-3 ([5]; 1X MIC, 6 h): 24000 CFU/mL and 32000 CFU/mL and 26000 CFU/mL | AVE CFU/ml ([5]; 1X MIC, 8 h): 5733.33 CFU/ml and 5.73E+03 CFU/ml | CFU/mL, replicates 1-3 ([5]; 1X MIC, 8 h): 5800 CFU/mL and 5400 CFU/mL and 6000 CFU/mL | AVE CFU/ml ([5]; 1X MIC, 24 h): 2466667 CFU/ml and 2.47E+06 CFU/ml | CFU/mL, replicates 1-3 ([5]; 1X MIC, 24 h): 2400000 CFU/mL and 2200000 CFU/mL and 2800000 CFU/mL | AVE CFU/ml ([5]; 4X MIC, 0 h): 9800000 CFU/ml | AVE CFU/ml ([5]; 4X MIC, 1 h): 7.67E+06 CFU/ml and 7666667 CFU/ml | CFU/mL, replicates 1-3 ([5]; 4X MIC, 1 h): 7800000 CFU/mL and 7200000 CFU/mL and 8000000 CFU/mL | AVE CFU/ml ([5]; 4X MIC, 2 h): 3.87E+06 CFU/ml and 3866667 CFU/ml | CFU/mL, replicates 1-3 ([5]; 4X MIC, 2 h): 3400000 CFU/mL and 4000000 CFU/mL and 4200000 CFU/mL | AVE CFU/ml ([5]; 4X MIC, 4 h): 40000 CFU/ml and 4.00E+04 CFU/ml | CFU/mL, replicates 1-3 ([5]; 4X MIC, 4 h): 36000 CFU/mL and 42000 CFU/mL (2×) | AVE CFU/ml ([5]; 4X MIC, 6 h): 5266.67 CFU/ml and 5.27E+03 CFU/ml | CFU/mL, replicates 1-3 ([5]; 4X MIC, 6 h): 4400 CFU/mL and 5200 CFU/mL and 6200 CFU/mL | AVE CFU/ml ([5]; 4X MIC, 8 h): 1066.67 CFU/ml and 1.07E+03 CFU/ml | CFU/mL, replicates 1-3 ([5]; 4X MIC, 8 h): 1400 CFU/mL and 800 CFU/mL and 1000 CFU/mL | AVE CFU/ml ([5]; 4X MIC, 24 h): 0 CFU/ml and 0.00E+00 CFU/ml | CFU/mL, replicates 1-3 ([5]; 4X MIC, 24 h): 0 CFU/mL | MIC ([5]; Neisseria gonorrhoeae, ATCC49226): 0.008 µg/mL (≈ 0.0144 µM)

O=C(Nc1nnc(-c2ccc(F)cc2)o1)c1ccccc1 [MBXC1-4227]
MIC (Neisseria gonorrhoeae; Neisseria gonorrhoeae ATCC 49226, source data, individual replicates): 0.8852 µg/mL and 0.4426 µg/mL
